Read-outs that look alike come from different tables or passages of the source.
Legend:
SK-HEP-1 hepatoma cells = assay: SK-Hep-1 invasion/migration, live cell transwell assay; type: cell-based, human; details: for effect on SK-Hep-1 invasion in words: live cell transwell assay
human CXCR6 receptor [1] = molecular target: T1, human CXCR6 receptor (Homo sapiens, UniProt O00574); type: cell-based
human CXCR6 receptor [2] = molecular target: T1, human CXCR6 receptor; assay: Antagonism of CXCL16; type: cell-based; details: vs ML339
[3] = Solubility in aqueous buffer; type: physicochemical; details: pH range 5.0–7.4
PAMPA permeability = type: in vitro ADME
Plasma protein binding = type: in vitro ADME
[4] = Stability in mouse plasma; type: in vitro ADME
[5] = Stability in human plasma; type: in vitro ADME
human liver microsomes = assay: Metabolic stability in human liver microsomes; type: in vitro ADME; details: within 1h
[6] = Metabolic stability in mouse liver microsomes; type: in vitro ADME; details: within 1h
[7] = Rapid Assessment of Compound Exposure; type: in vivo, mouse
CCR6 human receptor = details: read-out: IC50 against CCR6; previously reported; cited from earlier work
CXCR5 human receptor = details: read-out: IC50 against CXCR5; previously reported; cited from earlier work
CXCR4 human receptor = details: read-out: IC50 against CXCR4; previously reported; cited from earlier work

T1 sequence (O00574 whole entry): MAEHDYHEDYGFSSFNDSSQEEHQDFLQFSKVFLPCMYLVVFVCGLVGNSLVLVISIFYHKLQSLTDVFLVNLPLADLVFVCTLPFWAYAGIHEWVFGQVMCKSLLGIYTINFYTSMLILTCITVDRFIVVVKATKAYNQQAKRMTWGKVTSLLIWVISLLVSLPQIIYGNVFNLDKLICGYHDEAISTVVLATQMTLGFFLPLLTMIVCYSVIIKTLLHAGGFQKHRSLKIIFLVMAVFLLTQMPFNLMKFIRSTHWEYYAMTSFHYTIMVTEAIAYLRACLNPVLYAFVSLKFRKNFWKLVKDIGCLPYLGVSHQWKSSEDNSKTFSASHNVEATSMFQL

COc1cc(C(=O)N[C@@H]2C[C@H]3CCC[C@@H](C2)N3Cc2nc3c(Cl)cccc3s2)cc(OC)c1OC [Compound 73]
effect on SK-Hep-1 invasion in words (SK-HEP-1 hepatoma cells): inhibited invasion

COc1cc(C(=O)N[C@@H]2C[C@H]3CCC[C@@H](C2)N3Cc2ccccc2Cl)cc(OC)c1OC [Compound 59]
fold lower activity than compound 17 (human CXCR6 receptor [1]; vs compound 17): 48 fold

COc1cc(C(=O)N[C@@H]2C[C@H]3CCC[C@@H](C2)N3CC(=O)c2nc3ccccc3s2)cc(OC)c1OC [Compound 72]
fold loss in activity (human CXCR6 receptor [1]; carbonyl linkage, comparator not named): 100 fold

COc1cc(C(=O)N[C@@H]2C[C@H]3CCC[C@@H](C2)N3Cc2nc3c(C(F)(F)F)cccc3s2)cc(OC)c1OC [Compound 81]
EC50 (human CXCR6 receptor [1]): 0.04 µM
fold improvement in potency in β-arrestin assay (human CXCR6 receptor [1]; vs ML339): ≥ 10 fold
fold improvement in potency in cAMP assay (human CXCR6 receptor [2]): ≥ 10 fold
cell viability in words (SK-HEP-1 hepatoma cells; SK-HEP-1, 72 h): without loss in cell viability
solubility in words [3]: good solubility
PAMPA permeability in words (PAMPA permeability): good PAMPA permeability
plasma protein binding in words (Plasma protein binding): high plasma protein binding
stability in mouse plasma in words [4]: excellent stability
stability in human plasma in words [5]: excellent stability
metabolism in human liver microsomes in words (human liver microsomes): almost completely metabolized
metabolism in mouse liver microsomes in words [6]: almost completely metabolized
exposure in RACE assay in words ([7]; 10 mg/kg oral dose, DMSO: Tw80: H2O (1:1:8)): good exposure
bioavailability in words ([7]; mice): good bioavailability
SK-HEP-1 tumor growth vs vehicle in words (SK-HEP-1 tumor; 30 mg/kg oral, Day 4 to Day 30, P < 0.0005): significantly inhibited
SK-HEP-1 tumor growth vs vehicle in words (SK-HEP-1 tumor; 60 mg/kg oral, Day 4 to Day 30, P < 0.0002): significantly inhibited
toxicity to mice in words (SK-HEP-1 tumor; 30 and 60 mg/kg, 30-day study): non-toxic

O=C(CN1[C@@H]2CCC[C@H]1C[C@H](NC(=O)c1ccccc1)C2)Nc1ccccc1 [Compound 6]
effect on SK-Hep-1 invasion in words (SK-HEP-1 hepatoma cells): had no effect

COc1cc(C(=O)N[C@@H]2C[C@H]3CCC[C@@H](C2)N3CC(=O)Nc2ccccc2Cl)cc(OC)c1OC [Compound 17]
IC50 (CCR6 human receptor): > 80 µM
IC50 (CXCR5 human receptor): > 80 µM
IC50 (CXCR4 human receptor): > 80 µM

Reference: paper PMC8011643 (Bioorganic & medicinal chemistry letters, 2019)
